Experimental data from article PMC8617031, “Development of a BCL-xL and BCL-2 dual degrader with improved anti-leukemic activity,” (Nature Communications, 2021).
Values joined by “and” are separate entries in the source; they are usually repeats but may differ in a detail not shown here. Equal values may be shown once.

Columns and labels:
[1] = tested on: BCL-2/PROTAC/VCB ternary complex (HiBit-BCL-2, HaloTag-VHL); test: NanoBRET intracellular ternary complex formation in 293T cells, BCL-2; assay type: cell-based, human; details: for nanoBRET ratio (610/450, background-subtracted), Ave, Bcl-2: Ave of Read2 and Read3; for nanoBRET ratio (610/450, background-subtracted), Ave, Bcl-2 / nanoBRET ratio (610/450, background-subtracted), Read2, Bcl-2 / nanoBRET ratio (610/450, background-subtracted), Read3, Bcl-2: triplicate wells
Outline: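 293T cells were transfected with HiBit-BCL-xL or HiBit-BCL-2 plus HaloTag-VHL and incubated overnight with or without HaloTag NanoBRET 618 ligand in 4% FBS Opti-MEM. Serially diluted compounds were applied for 6 h at 37 °C. mBRET ratio from donor emission (450/50 nm) and acceptor emission (610 nm longpass) after Nano-Glo substrate.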

Kasumi-1 cells = test: Viability (MTS) of Kasumi-1 AML cells; assay type: cell-based, human; details: Kasumi, 24h, Fig. 7c

Cc1ncsc1-c1ccc([C@H](C)NC(=O)[C@@H]2C[C@@H](O)CN2C(=O)[C@@H](NC(=O)CCCCCCC(=O)N2CCN(C[C@@]3(C)CCC(c4ccc(Cl)cc4)=C(CN4CCN(c5ccc(C(=O)NS(=O)(=O)c6ccc(N[C@H](CCN7CCOCC7)CSc7ccccc7)c(S(=O)(=O)C(F)(F)F)c6)cc5)CC4)C3)CC2)C(C)(C)C)cc1 [753a]
nanoBRET ratio (610/450, background-subtracted), Ave, Bcl-2 ([1]; 0.004 uM): 3.986 and 4.005 and 4.171
nanoBRET ratio (610/450, background-subtracted), Read2, Bcl-2 ([1]; 0.004 uM): 4.213 and 3.959 and 4.208
nanoBRET ratio (610/450, background-subtracted), Read3, Bcl-2 ([1]; 0.004 uM): 3.759 and 4.052 and 4.1349
nanoBRET ratio (610/450, background-subtracted), Ave, Bcl-2 ([1]; 0.012 uM): 3.935 and 4.221 and 4.234
nanoBRET ratio (610/450, background-subtracted), Read2, Bcl-2 ([1]; 0.012 uM): 4.374 and 4.4563 and 4.486
nanoBRET ratio (610/450, background-subtracted), Read3, Bcl-2 ([1]; 0.012 uM): 3.4969 and 3.9866 and 3.982
nanoBRET ratio (610/450, background-subtracted), Ave, Bcl-2 ([1]; 0.111 uM): 5.182 and 5.692 and 5.227
nanoBRET ratio (610/450, background-subtracted), Read2, Bcl-2 ([1]; 0.111 uM): 5.4197 and 6.174 and 5.638
nanoBRET ratio (610/450, background-subtracted), Read3, Bcl-2 ([1]; 0.111 uM): 4.944 and 5.21 and 4.816
nanoBRET ratio (610/450, background-subtracted), Ave, Bcl-2 ([1]; 0.333 uM): 5.936 and 5.165 and 5.723
nanoBRET ratio (610/450, background-subtracted), Read2, Bcl-2 ([1]; 0.333 uM): 6.144 and 5.244 and 5.817
nanoBRET ratio (610/450, background-subtracted), Read3, Bcl-2 ([1]; 0.333 uM): 5.728 and 5.085 and 5.6284
nanoBRET ratio (610/450, background-subtracted), Ave, Bcl-2 ([1]; 1 uM): 4.911 and 5.007 and 4.802
nanoBRET ratio (610/450, background-subtracted), Read2, Bcl-2 ([1]; 1 uM): 5.2892 and 5.222 and 5.13
nanoBRET ratio (610/450, background-subtracted), Read3, Bcl-2 ([1]; 1 uM): 4.533 and 4.7919 and 4.4737
nanoBRET ratio (610/450, background-subtracted), Ave, Bcl-2 ([1]; 3 uM): 5.075 and 4.7947 and 5.072
nanoBRET ratio (610/450, background-subtracted), Read2, Bcl-2 ([1]; 3 uM): 5.352 and 5.171 and 5.538
nanoBRET ratio (610/450, background-subtracted), Read3, Bcl-2 ([1]; 3 uM): 4.798 and 4.419 and 4.6068

Cc1ncsc1-c1ccc([C@H](C)NC(=O)[C@@H]2C[C@@H](O)CN2C(=O)[C@@H](NC(=O)CCCCCCC(=O)N2CCN(C[C@]3(C)CCC(c4ccc(Cl)cc4)=C(CN4CCN(c5ccc(C(=O)NS(=O)(=O)c6ccc(N[C@H](CCN7CCOCC7)CSc7ccccc7)c(S(=O)(=O)C(F)(F)F)c6)cc5)CC4)C3)CC2)C(C)(C)C)cc1 [753b]
nanoBRET ratio (610/450, background-subtracted), Ave, Bcl-2 ([1]; 0.004 uM): 4.377 and 3.959 and 4.565
nanoBRET ratio (610/450, background-subtracted), Read2, Bcl-2 ([1]; 0.004 uM): 4.539 and 4.475 and 4.818
nanoBRET ratio (610/450, background-subtracted), Read3, Bcl-2 ([1]; 0.004 uM): 4.215 and 3.442 and 4.311
nanoBRET ratio (610/450, background-subtracted), Ave, Bcl-2 ([1]; 0.012 uM): 5.266 and 5.391 and 5.383
nanoBRET ratio (610/450, background-subtracted), Read2, Bcl-2 ([1]; 0.012 uM): 5.627 and 5.5043 and 5.572
nanoBRET ratio (610/450, background-subtracted), Read3, Bcl-2 ([1]; 0.012 uM): 4.906 and 5.278 and 5.194
nanoBRET ratio (610/450, background-subtracted), Ave, Bcl-2 ([1]; 0.111 uM): 8.153 and 8.77 and 8.375
nanoBRET ratio (610/450, background-subtracted), Read2, Bcl-2 ([1]; 0.111 uM): 8.4844 and 9.173 and 8.444
nanoBRET ratio (610/450, background-subtracted), Read3, Bcl-2 ([1]; 0.111 uM): 7.821 and 8.367 and 8.306
nanoBRET ratio (610/450, background-subtracted), Ave, Bcl-2 ([1]; 0.333 uM): 10.2466 and 9.352 and 9.108
nanoBRET ratio (610/450, background-subtracted), Read2, Bcl-2 ([1]; 0.333 uM): 10.4847 and 9.4698 and 9.325
nanoBRET ratio (610/450, background-subtracted), Read3, Bcl-2 ([1]; 0.333 uM): 10.0085 and 9.234 and 8.89
nanoBRET ratio (610/450, background-subtracted), Ave, Bcl-2 ([1]; 1 uM): 9.221 and 9.808 and 9.597
nanoBRET ratio (610/450, background-subtracted), Read2, Bcl-2 ([1]; 1 uM): 8.91 and 9.99 and 9.879
nanoBRET ratio (610/450, background-subtracted), Read3, Bcl-2 ([1]; 1 uM): 9.531 and 9.627 and 9.314
nanoBRET ratio (610/450, background-subtracted), Ave, Bcl-2 ([1]; 3 uM): 10.0388 and 9.727 and 10.2545
nanoBRET ratio (610/450, background-subtracted), Read2, Bcl-2 ([1]; 3 uM): 10.3731 and 9.71 and 10.9724
nanoBRET ratio (610/450, background-subtracted), Read3, Bcl-2 ([1]; 3 uM): 9.704 and 9.745 and 9.537
intracellular ternary complex formation with BCL-2 (in words) ([1]; NanoBRET, 293T cells, 6 h): much higher activity to induce the ternary complex formation with both BCL-xL and BCL-2 relative to 753a
Luminescence (raw plate reading) (Kasumi-1 cells; 2um (plate column 11)): 42731 and 33855 and 41105 and 35447
Luminescence (raw plate reading) (Kasumi-1 cells; 4um (plate column 12)): 25069 and 21488 and 20344 and 20760
